Results: US8633242B2, “Benzylidene indanones and processes for preparation and use thereof” (Council of Scientific and Industrial Research, priority 2011, dated 2014)
“Also recorded” adds a separate entry of the source.

Experiments:
HCT (Colon) = test: Sulphorhodamine B cytotoxicity assay, HCT; type: cell-based, human
Method: (§1) The benzylidene analogues were evaluated by Sulphorhodamine B Assay as per reported method [Skehan et al., J. Natl. Cancer Inst. 1990, 82, 1107]. The human cancer cell lines procured from National Cancer institute, Frederick, U.S.A. were used in present study. Cells were grown in tissue culture flasks in complete growth medium (RPMI-1640 medium with 2 mM glutamine, pH 7.4 supplemented with 10% fetal bovine serum, 100 μg/ml streptomycin and 100 units/ml penicillin) in a carbon dioxide incubator (37° C., 5% CO2, 90% RH). The cells at subconfluent stage were harvested from the flask by treatment with trypsin (0.05% in PBS (pH 7.4) containing 0.02% EDTA). Cells with viability of more than 98%, as determined by trypan blue exclusion, were used for determination of cytotoxicity. The cell suspension required concentration of cells was prepared in complete growth medium. Stock solution of 2×10^−2 M of compounds were prepared in DMSO and further dilution was carried out complete growth medium containing 50 μg/ml of gentamycin to obtained working test solution of required concentration. In vitro cytotoxicity against various human cancer cell lines was determined using 96-well cell culture plates. The 100 μl of cell suspension was added to each well of the 96-well cell culture plates. The cells were allowed to grow in CO2 incubator (37° C., 5% CO2, 90% RH) for 24 hours. The test materials in complete growth medium (100 μl) were added after 24 hours incubation to the wells containing cell suspension. The plates were further incubated for 48 hours (37° C. in an atmosphere of 5% CO2 and 90% relative humidity) in a carbon dioxide incubator after addition of test material and then the cell growth was stopped by gently layering trichloroacetic acid (50% TCA, 50 μl) on top of the medium in all the wells. The plates were incubated at 4° C. for one hour to fix the cells attached to the bottom of the wells. The liquid of all the wells was gently pipetted out and discarded. The plates were washed five times with distilled water to remove TCA, growth medium low molecular weight metabolites, serum proteins etc. and air-dried. Cell growth was measured by staining with sulforhodamine B dye. The adsorbed dye was dissolved in Tris-HCl Buffer (100 μl/well, 0.01M, pH 10.4) and plates were gently stirred for 10 minutes on a mechanical stirrer. The optical density (OD) was recorded on ELISA reader at 540 nm. 5-Fluorouracil, Paclitaxel (Taxol), Mitomycin-c and Adriamycin were used as positive controls.

HeLa (Cervix) = test: Sulphorhodamine B cytotoxicity assay, HeLa; type: cell-based, human; settings: Homo sapiens, HeLa; SRB assay, 48 hours incubation; read-out: Human cancer cell lines IC50, HeLa (Cervix)
Method: as §1

MCF-7 (Breast cancer) = test: Sulphorhodamine B cytotoxicity assay, MCF-7; type: cell-based, human
Method: as §1

DU-145 (prostate) = test: Sulphorhodamine B cytotoxicity assay, DU-145; type: cell-based, human; set-up: key to Human cancer cell lines IC50, DU-145 (prostate): Inactive: inactive, if IC50 > 100 μM; settings: SRB assay, 48 hours incubation
Method: as §1

[1] = tested on: various human cancer cell lines; test: Cytotoxicity against various human cancer cell lines (summary statements); type: cell-based
Method: The benzylidene analogues were evaluated by Sulphorhodamine B Assay as per reported method [Skehan et al., J. Natl. Cancer Inst. 1990, 82, 1107]. The human cancer cell lines procured from National Cancer institute, Frederick, U.S.A. were used in present study. Cells were grown in tissue culture flasks in complete growth medium (RPMI-1640 medium with 2 mM glutamine, pH 7.4 supplemented with 10% fetal bovine serum, 100 μg/ml streptomycin and 100 units/ml penicillin) in a carbon dioxide incubator (37° C., 5% CO2, 90% RH). The cells at subconfluent stage were harvested from the flask by treatment with trypsin (0.05% in PBS (pH 7.4) containing 0.02% EDTA). Cells with viability of more than 98%, as determined by trypan blue exclusion, were used for determination of cytotoxicity. The cell suspension required concentration of cells was prepared in complete growth medium. Stock solution of 2×10^−2 M of compounds were prepared in DMSO and further dilution was carried out complete growth medium containing 50 μg/ml of gentamycin to obtained working test solution of required concentration. In vitro cytotoxicity against various human cancer cell lines was determined using 96-well cell culture plates. […] Cell growth was measured by staining with sulforhodamine B dye. […] The optical density (OD) was recorded on ELISA reader at 540 nm. […]

SMILES: COc1cc(C2/C(=C/c3ccc4c(c3)OCO4)C(=O)c3cc(OC)c(OC)c(OC)c32)cc(OC)c1OC (racemic) [Compound 8, 2-(3,4-Methylenedioxybenzylidine), 3-(3,4,5-trimethoxyphenyl), 4,5,6-trimethoxyindanone]
- activity against HCT (Colon) cancer cell line, in words (HCT (Colon)): better activity
- IC50 (HCT (Colon); Homo sapiens, SRB assay, 48 hours incubation, read-out: Human cancer cell lines IC50, HCT (Colon)): 100 nM
- IC50 (HeLa (Cervix)): 23 µM
- anticancer activity against human breast cancer cells (MCF-7), in words (MCF-7 (Breast cancer)): better activity; also recorded: potent anticancer activity
- IC50 (MCF-7 (Breast cancer); Homo sapiens, MCF7, SRB assay, 48 hours incubation, read-out: Human cancer cell lines IC50, MCF-7 (Breast cancer)): 10 nM
- Human cancer cell lines IC50, DU-145 (prostate) (DU-145 (prostate)): Inactive
- anticancer activity against human cancer cell lines, in words [1]: exhibits anticancer activity
